In patent US20210338846A1, “COMPETITIVE PROSTATE-SPECIFIC MEMBRANE ANTIGEN (PSMA) BINDING AGENTS FOR REDUCTION OF NON-TARGET ORGAN UPTAKE OF RADIOLABELED PSMA INHIBITORS FOR PSMA POSITIVE TUMOR IMAGING AND RADIOPHARMACEUTICAL THERAPY” (The Johns Hopkins University, priority 2018, published 2021):
“And” between values parts separate entries of the source, which are not always exact repeats. Identical values can stand only once. Like-named read-outs stand apart in the source and are kept apart here.

Legend:
[1] = tested on: PSMA+ PC-3 PiP and PSMA− PC-3 flu tumors; format: in vivo
[2] = tested on: PSMA+ PC-3 PiP and PSMA− PC-3 flu tumors
[3] = 2 Hour (head; title: One-Hour), No CI
[4] = 2 Hour (head; title: One-Hour), co-injection 0.5 nmole VK-02-90
[5] = 2 Hour (head; title: One-Hour), co-injection 1.0 nmole VK-02-90
[6] = 2 Hour (head; title: One-Hour), co-injection 5.0 nmole VK-02-90
[7] = 4 Hour, co-injection 0.5 nmole VK-02-90
[8] = 4 Hour, co-injection 1.0 nmole VK-02-90
[9] = 4 Hour, co-injection 5.0 nmole VK-02-90
[10] = 1 h, co-injection 0.5 nmole YC-I-27
[11] = 1 h, co-injection 1.0 nmole YC-I-27
[12] = 1 h, co-injection 5.0 nmole YC-I-27
[13] = 4 h, co-injection 0.5 nmole YC-I-27
[14] = 4 h, co-injection 1.0 nmole YC-I-27
[15] = 4 h, co-injection 5.0 nmole YC-I-27
[16] = 24 h, co-injection 0.5 nmole YC-I-27

## O=C([O-])CN1CCN(CC(=O)[O-])CCN(CC(=O)NCCCCC(=O)N(CCCC[C@H](NC(=O)N[C@@H](CCC(=O)O)C(=O)O)C(=O)O)Cc2ccc([125I])cc2)CCN(CC(=O)[O-])CC1.[Lu+3] [[^125I]VK-02-90-Lu]
[1]; [3]
  Biodistribution: Blood: 1.1 ± 0.1 % injected dose/gram
  Biodistribution: Flu tumor: 1.0 ± 0.2 % injected dose/gram
  Biodistribution: Lacrimal gland: 2.1 ± 0.9 % injected dose/gram
  Biodistribution: PiP tumor: 26 ± 3 % injected dose/gram
  Biodistribution: Salivary gland: 2.3 ± 0.5 % injected dose/gram
  Biodistribution: kidneys: 129 ± 15 % injected dose/gram
  Biodistribution: spleen: 4.3 ± 0.9 % injected dose/gram
  Biodistribution: stomach: 1.7 ± 0.3 % injected dose/gram
[1]; [4]
  Biodistribution: Blood: 0.4 ± 0.1 % injected dose/gram
  Biodistribution: Flu tumor: 0.6 ± 0.3 % injected dose/gram
  Biodistribution: Lacrimal gland: 0.4 ± 0.1 % injected dose/gram
  Biodistribution: PiP tumor: 37 ± 7 % injected dose/gram
  Biodistribution: Salivary gland: 0.2 ± 0.03 % injected dose/gram
  Biodistribution: kidneys: 10 ± 2.5 % injected dose/gram
  Biodistribution: spleen: 1.1 ± 0.4 % injected dose/gram
  Biodistribution: stomach: 0.2 ± 0.1 % injected dose/gram
[1]; [5]
  Biodistribution: Blood: 0.4 ± 0.1 % injected dose/gram
  Biodistribution: Flu tumor: 0.5 ± 0.1 % injected dose/gram
  Biodistribution: Lacrimal gland: 0.4 ± 0.1 % injected dose/gram
  Biodistribution: PiP tumor: 35 ± 9 % injected dose/gram
  Biodistribution: Salivary gland: 0.2 ± 0.06 % injected dose/gram
  Biodistribution: kidneys: 6.5 ± 0.9 % injected dose/gram
  Biodistribution: spleen: 1.1 ± 0.4 % injected dose/gram
  Biodistribution: stomach: 0.2 ± 0.04 % injected dose/gram
[1]; [6]
  Biodistribution: Blood: 0.5 ± 0.1 % injected dose/gram
  Biodistribution: Flu tumor: 0.9 ± 0.3 % injected dose/gram
  Biodistribution: Lacrimal gland: 0.4 ± 0.03 % injected dose/gram
  Biodistribution: PiP tumor: 24 ± 4 % injected dose/gram
  Biodistribution: Salivary gland: 0.3 ± 0.1 % injected dose/gram
  Biodistribution: kidneys: 4.2 ± 0.5 % injected dose/gram
  Biodistribution: spleen: 0.7 ± 0.2 % injected dose/gram
  Biodistribution: stomach: 0.2 ± 0.06 % injected dose/gram
[1]; 4 Hour, No CI
  Biodistribution: Blood: 0.3 ± 0.2 % injected dose/gram
  Biodistribution: Flu tumor: 0.2 ± 0.1 % injected dose/gram
  Biodistribution: Lacrimal gland: 0.4 ± 0.2 % injected dose/gram
  Biodistribution: PiP tumor: 27 ± 8 % injected dose/gram
  Biodistribution: Salivary gland: 1.8 ± 0.2 % injected dose/gram
  Biodistribution: kidneys: 10 ± 2.5 % injected dose/gram
  Biodistribution: spleen: 0.6 ± 0.2 % injected dose/gram
  Biodistribution: stomach: 0.8 ± 0.5 % injected dose/gram
[1]; [7]
  Biodistribution: Blood: 0.02 ± 0.01 % injected dose/gram
  Biodistribution: Flu tumor: 0.1 ± 0.02 % injected dose/gram
  Biodistribution: Lacrimal gland: 0.1 ± 0.03 % injected dose/gram
  Biodistribution: PiP tumor: 25 ± 2 % injected dose/gram
  Biodistribution: Salivary gland: 0.08 ± 0.04 % injected dose/gram
  Biodistribution: kidneys: 2.1 ± 0.7 % injected dose/gram
  Biodistribution: spleen: 0.2 ± 0.1 % injected dose/gram
  Biodistribution: stomach: 0.06 ± 0.01 % injected dose/gram
[1]; [8]
  Biodistribution: Blood: 0.2 ± 0.01 % injected dose/gram
  Biodistribution: Flu tumor: 0.1 ± 0.03 % injected dose/gram
  Biodistribution: Lacrimal gland: 0.1 ± 0.05 % injected dose/gram
  Biodistribution: PiP tumor: 27 ± 4 % injected dose/gram
  Biodistribution: Salivary gland: 0.1 ± 0.02 % injected dose/gram
  Biodistribution: kidneys: 1.4 ± 0.4 % injected dose/gram
  Biodistribution: spleen: 0.2 ± 0.1 % injected dose/gram
  Biodistribution: stomach: 0.1 ± 0.03 % injected dose/gram
[1]; [9]
  Biodistribution: Blood: 0 % injected dose/gram
  Biodistribution: Flu tumor: 0.1 ± 0.01 % injected dose/gram
  Biodistribution: Lacrimal gland: 0.1 ± 0.1 % injected dose/gram
  Biodistribution: PiP tumor: 19 ± 2 % injected dose/gram
  Biodistribution: Salivary gland: 0.05 ± 0.02 % injected dose/gram
  Biodistribution: kidneys: 0.9 ± 0.3 % injected dose/gram
  Biodistribution: spleen: 0.15 ± 0.08 % injected dose/gram
  Biodistribution: stomach: 0.1 ± 0.04 % injected dose/gram
[2]; 1 h, No CI
  Biodistribution: Blood: 1.1 ± 0.1 % injected dose/gram
  Biodistribution: Flu tumor: 1.0 ± 0.2 % injected dose/gram
  Biodistribution: Lacrimal gland: 2.1 ± 0.9 % injected dose/gram
  Biodistribution: PiP tumor: 26 ± 3 % injected dose/gram
  Biodistribution: Salivary gland: 2.3 ± 0.5 % injected dose/gram
  Biodistribution: kidneys: 129 ± 15 % injected dose/gram
  Biodistribution: spleen: 4.3 ± 0.9 % injected dose/gram
  Biodistribution: stomach: 1.7 ± 0.3 % injected dose/gram
[2]; [10]
  Biodistribution: Blood: 1.1 ± 0.1 % injected dose/gram
  Biodistribution: Flu tumor: 1.0 ± 0.3 % injected dose/gram
  Biodistribution: Lacrimal gland: 0.5 ± 0.1 % injected dose/gram
  Biodistribution: PiP tumor: 42 ± 4 % injected dose/gram and 42 ± 4.2 % injected dose/gram
  Biodistribution: Salivary gland: 3.2 ± 0.7 % injected dose/gram
  Biodistribution: kidneys: 4.2 ± 1.3 % injected dose/gram
  Biodistribution: spleen: 0.8 ± 0.2 % injected dose/gram
  Biodistribution: stomach: 1.8 ± 0.2 % injected dose/gram
[2]; [11]
  Biodistribution: Blood: 1.0 ± 0.1 % injected dose/gram
  Biodistribution: Flu tumor: 0.8 ± 0.2 % injected dose/gram
  Biodistribution: Lacrimal gland: 0.6 ± 0.05 % injected dose/gram
  Biodistribution: PiP tumor: 29 ± 2 % injected dose/gram
  Biodistribution: Salivary gland: 2.9 ± 0.4 % injected dose/gram
  Biodistribution: kidneys: 2.4 ± 0.8 % injected dose/gram
  Biodistribution: spleen: 0.6 ± 0.1 % injected dose/gram
  Biodistribution: stomach: 1.8 ± 0.3 % injected dose/gram
[2]; [12]
  Biodistribution: Blood: 1.1 ± 0.2 % injected dose/gram
  Biodistribution: Flu tumor: 0.8 ± 0.2 % injected dose/gram
  Biodistribution: Lacrimal gland: 1.1 ± 0.6 % injected dose/gram
  Biodistribution: PiP tumor: 20 ± 3 % injected dose/gram
  Biodistribution: Salivary gland: 5.1 ± 1.7 % injected dose/gram
  Biodistribution: kidneys: 2.3 ± 0.7 % injected dose/gram
  Biodistribution: spleen: 0.7 ± 0.1 % injected dose/gram
  Biodistribution: stomach: 2.2 ± 0.7 % injected dose/gram
[2]; 4 h, No CI
  Biodistribution: Blood: 0.3 ± 0.2 % injected dose/gram
  Biodistribution: Flu tumor: 0.2 ± 0.1 % injected dose/gram and 0.25 ± 0.1 % injected dose/gram
  Biodistribution: Lacrimal gland: 0.4 ± 0.2 % injected dose/gram
  Biodistribution: PiP tumor: 27 ± 7 % injected dose/gram and 27 ± 8 % injected dose/gram
  Biodistribution: Salivary gland: 1.8 ± 0.2 % injected dose/gram
  Biodistribution: kidneys: 9.5 ± 2.5 % injected dose/gram and 10 ± 2.5 % injected dose/gram
  Biodistribution: spleen: 0.6 ± 0.2 % injected dose/gram
  Biodistribution: stomach: 0.8 ± 0.5 % injected dose/gram
[2]; [13]
  Biodistribution: Blood: 0.4 ± 0.06 % injected dose/gram
  Biodistribution: Flu tumor: 0.3 ± 0.1 % injected dose/gram
  Biodistribution: Lacrimal gland: 0.2 ± 0.02 % injected dose/gram and 0.4 ± 0.02 % injected dose/gram
  Biodistribution: PiP tumor: 24 ± 3 % injected dose/gram
  Biodistribution: Salivary gland: 3.3 ± 0.8 % injected dose/gram
  Biodistribution: kidneys: 0.9 ± 0.1 % injected dose/gram
  Biodistribution: spleen: 0.25 ± 0.07 % injected dose/gram
  Biodistribution: stomach: 1.3 ± 0.2 % injected dose/gram
[2]; [14]
  Biodistribution: Blood: 0.4 ± 0.05 % injected dose/gram
  Biodistribution: Flu tumor: 0.3 ± 0.1 % injected dose/gram
  Biodistribution: Lacrimal gland: 0.2 ± 0.03 % injected dose/gram
  Biodistribution: PiP tumor: 24 ± 1 % injected dose/gram
  Biodistribution: Salivary gland: 3.2 ± 0.7 % injected dose/gram
  Biodistribution: kidneys: 0.6 ± 0.03 % injected dose/gram
  Biodistribution: spleen: 0.2 ± 0.04 % injected dose/gram
  Biodistribution: stomach: 1.2 ± 0.2 % injected dose/gram
[2]; [15]
  Biodistribution: Blood: 0.4 ± 0.1 % injected dose/gram
  Biodistribution: Flu tumor: 0.3 ± 0.1 % injected dose/gram
  Biodistribution: Lacrimal gland: 0.5 ± 0.5 % injected dose/gram
  Biodistribution: PiP tumor: 14 ± 5 % injected dose/gram
  Biodistribution: Salivary gland: 5.0 ± 1.4 % injected dose/gram
  Biodistribution: kidneys: 0.7 ± 0.1 % injected dose/gram
  Biodistribution: spleen: 0.3 ± 0.06 % injected dose/gram
  Biodistribution: stomach: 1.6 ± 0.4 % injected dose/gram
[2]; 24 h, No CI
  Biodistribution: Blood: 0.01 ± 0.01 % injected dose/gram
  Biodistribution: Flu tumor: 0.05 ± 0.01 % injected dose/gram
  Biodistribution: Lacrimal gland: 0.05 ± 0.04 % injected dose/gram
  Biodistribution: PiP tumor: 18 ± 6 % injected dose/gram
  Biodistribution: Salivary gland: 0.02 ± 0.08 % injected dose/gram
  Biodistribution: kidneys: 1.3 ± 0.7 % injected dose/gram
  Biodistribution: spleen: 0.1 ± 0.05 % injected dose/gram
  Biodistribution: stomach: 0.01 ± 0.04 % injected dose/gram
[2]; [16]
  Biodistribution: Blood: 0.1 ± 0.01 % injected dose/gram
  Biodistribution: Flu tumor: 0.04 ± 0.01 % injected dose/gram
  Biodistribution: Lacrimal gland: 0.03 ± 0.02 % injected dose/gram
  Biodistribution: PiP tumor: 16 ± 4 % injected dose/gram
  Biodistribution: Salivary gland: 0.02 ± 0.01 % injected dose/gram
  Biodistribution: kidneys: 0.5 ± 0.2 % injected dose/gram
  Biodistribution: spleen: 0.04 ± 0.01 % injected dose/gram
  Biodistribution: stomach: 0.04 ± 0.04 % injected dose/gram
